{"source": "patent US20220339295A1", "about": "“FULLERENE GALLIUM P[…] METHODS” (Exothule Inc., priority 2020, published 2022)", "origin": "cited, not measured here", "key": {"transferrin": {"target": "transferrin (Homo sapiens, UniProt P02787)", "sequence (P02787 20-698, species assumed)": "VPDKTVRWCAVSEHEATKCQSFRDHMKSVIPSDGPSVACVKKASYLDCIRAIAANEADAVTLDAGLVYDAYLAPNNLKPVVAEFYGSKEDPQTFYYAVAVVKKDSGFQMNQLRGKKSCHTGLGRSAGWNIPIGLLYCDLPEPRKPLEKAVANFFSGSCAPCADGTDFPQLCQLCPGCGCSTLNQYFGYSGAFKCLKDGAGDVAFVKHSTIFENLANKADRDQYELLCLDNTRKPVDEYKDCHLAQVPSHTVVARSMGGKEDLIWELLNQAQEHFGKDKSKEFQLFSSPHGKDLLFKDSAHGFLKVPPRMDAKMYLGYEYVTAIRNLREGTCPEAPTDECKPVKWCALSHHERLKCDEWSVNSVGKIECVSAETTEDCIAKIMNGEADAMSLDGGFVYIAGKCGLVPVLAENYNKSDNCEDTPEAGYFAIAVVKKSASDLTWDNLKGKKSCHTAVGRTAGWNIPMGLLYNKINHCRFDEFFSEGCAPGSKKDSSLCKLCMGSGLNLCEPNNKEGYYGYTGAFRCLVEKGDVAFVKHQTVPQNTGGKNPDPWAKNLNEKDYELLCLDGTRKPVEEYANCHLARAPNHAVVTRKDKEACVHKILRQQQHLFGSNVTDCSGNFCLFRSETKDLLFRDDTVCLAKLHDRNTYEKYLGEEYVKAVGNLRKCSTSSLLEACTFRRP", "conditions": "relative to Fe3+"}}, "data": [{"smiles": "[Ga]", "note": "[gallium]", "values": [{"measurement": "gallium excreted in urine", "setting": "after 24 hours", "result": 69, "unit": "%"}, {"measurement": "gallium excreted", "setting": "in 48 hours", "result": 91, "unit": "%"}, {"measurement": "binding in transferrin, times less effectively than Fe3+", "setting": "transferrin", "result": 300, "unit": "times"}]}]}
